In patent US12201619B2, “Compounds and methods for use in the treatment of microglia-mediated disorders” (NSC Therapeutics GmbH, priority 2018, dated 2025):
Residue numbers refer to the chain shown, from its start. Entries after “also recorded” stand apart in the source; their conditions may differ.

Key:
[1] = tested on: human blood-derived macrophages; assay: Cell viability (PrestoBlue) of blood-derived human macrophages; format: cell-based; conditions: for cell viability in regards to medium control: 0-24 h, 1-2000 μM for NSC001 and AF102B; for persistence of the cell viability effect: after 24 hours of treatment
Experimental: Human blood-derived macrophages were isolated from buffy coat via standard protocols (Monocyte isolation Kit, 130091153, Miltenyi Biotec GmbH, Germany) and differentiated for 9 days in M-CSF medium (Ser. No. 12/065,074, Thermo Fisher, Switzerland,) supplemented with 125 ng/ml human GM-CSF (130093864, Miltenyi Biotec GmbH, Germany) to induce M1 macrophage differentiation. Upon differentiation, cells were harvested and re-seeded at 1 Mio cells per 24-well. […] Cell viability was detected by absorbance measurements utilizing the PrestoBlue colorimetric assay (PrestoBlue Cell Viability Reagent, A13261, Thermo Fisher, Switzerland). Cell viability was assessed directly after compound application at 0 h and after 1 h, 3 h and 24 h.

[2] = biological target: T1, rat M1 muscarinic receptor (Rattus norvegicus, UniProt P08482); assay: Phosphoinositide (PI) hydrolysis in PC12M1 cells; format: cell-based
T1 construct: expressed in transfected cells; host or cells: PC12 rat pheochromocytoma cells (PC12M1)
T1 sequence (P08482 1-460): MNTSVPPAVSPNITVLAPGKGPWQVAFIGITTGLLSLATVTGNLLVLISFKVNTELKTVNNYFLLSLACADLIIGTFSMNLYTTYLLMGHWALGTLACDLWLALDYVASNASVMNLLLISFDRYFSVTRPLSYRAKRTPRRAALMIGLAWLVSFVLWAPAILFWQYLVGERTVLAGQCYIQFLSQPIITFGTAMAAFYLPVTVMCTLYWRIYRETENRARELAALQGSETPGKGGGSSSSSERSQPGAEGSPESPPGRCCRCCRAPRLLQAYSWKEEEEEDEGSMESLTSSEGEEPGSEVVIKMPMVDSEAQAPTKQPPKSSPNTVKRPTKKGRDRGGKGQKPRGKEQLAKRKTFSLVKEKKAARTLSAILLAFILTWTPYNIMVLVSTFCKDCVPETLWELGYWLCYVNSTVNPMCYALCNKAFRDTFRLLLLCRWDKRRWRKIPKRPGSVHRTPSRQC
Experimental: (§1) Rat pheochromocytoma cells (PC12) transfected with rat M1 muscarinic receptor (PC12M1) or CHOM1 cells were seeded in 24-well plates at a density of 4-8×10^5 cells/well. A day later, a fresh growth medium containing 1 μCi/ml [^3H]inositol (myo-[2-^3H(N)] 22 Ci/mmol; purchased from NEN, Boston, MA) was added for 18-24 h (overnight). Then, the medium was removed and the cells were washed twice followed by pre-incubation (10 min) with serum-free medium containing 20 mM Hepes pH 7.4 and 10 mM LiCl. […] Basal activity was determined in cells that were incubated in parallel without the tested compounds. Termination of the assay was carried out by aspirating the media and adding 0.5 ml 2% trichloroacetic acid (TCA) followed by agitating the cells in the cold for 30 min. The TCA extracts were transferred to anion-exchange columns, washed five times with 5 mM inositol, once with 5 ml 5 mM Na2B4O7 in 60 mM formic acid, and the total IPs were eluted with 3 ml 1 M NH4COOH in 0.1 M formic acid. The effluent was collected into scintillation vials and the radioactivity was measured using liquid scintillation counter, 1214 Rackbeta LKB Wallac.

human M1 mAChR [3] = biological target: T2, human M1 mAChR (Homo sapiens, UniProt P11229); assay: cell-based; conditions: for calcium mobilization response relative to CCh: CHOM1 cells, 50 μM compound
T2 sequence (P11229 1-460): T1 sequence (P08482 1-460) with V5A, S254T, S309P, K320R, G337A, V413I
Experimental: Cells were routinely cultured in Dulbecco's Modified eagle medium (Gibco, UK) supplemented with 10% fetal bovine serum (FBS), 1×MEM non-essential amino-acid, […] Glutamine, 100μ/ml Penicillin, 0.1 mg/ml Streptomycin, 25 μg/ml Amphotericin B and 100 μg/ml G418 (Biological industries, Israel). Cells were kept in a humidified atmosphere at 37° C. in 5% CO2 and were passaged twice weekly by 2.5 mg/ml trypsin-EDTA (0.02%) solution (Biological industries, Israel) and re-suspended in fresh media.
Calcium fluorescence measurements were performed using a NOVOstar plate reader with an injector and a pipetting system (BMG Labtech, Ortenberg, Germany). At the day before the experiment Chinese Hamster Ovary (CHO) cells expressing human M1 mAChR subtypes (CHOM1) were harvested and rinsed with culture medium (see section “cell culture”, supra) without Phenol red and evenly plated into black-wall clear optical bottom 96-well plate (Nunc, Rochester NY, USA) at a density of 40,000 cells/well. Growth medium was removed and 80 μl of loading buffer, containing 2.5 mM probenecid, was carefully added (loading buffer prepared according to FLUO-4 NW calcium assay kit manual). The cell plate was incubated at 37° C. for 30 minutes; then at room temperature for an additional 30 minutes. EGTA (10 μl of 50 mM dissolved in HBSS) was added automatically to each well using the NOVOstar injector system followed by shaking of 1 minute (1 mm width, 600 rpm) and then incubated for another 10 minutes. HBSS alone or test compounds dissolved in HBSS were then added (10 μl) sequentially into separate wells using the NOVOstar robotic pipettor system. Fluorescence intensity was measured at 0.5 second intervals, for 30 second for each well, using an excitation wavelength of 485 nm (bandwidth 10 nm) and emission of 520 nm (bandwidth 10 nm), cut-off 515 nm. All assays were carried out in triplicates in three independent experiments. Competition curves and EC50 values were derived using the GraphPad Prism software program, version 3.0.

3×Tg-AD mice = conditions: cited from earlier work
M1 receptor = biological target: T3, M1 receptor (Homo sapiens, UniProt P11229); conditions: in vitro; cited from earlier work
T3 sequence (P11229 1-460): T1 sequence (P08482 1-460) with V5A, S254T, S309P, K320R, G337A, V413I

human M1 mAChR [4] = biological target: T2, human M1 mAChR; assay: Phosphoinositide (PI) hydrolysis in CHOM1 cells; format: cell-based; parameters: expressed in transfected cells; host or cells: CHO (Chinese Hamster Ovary) cells, CHOM1, kept under G418; conditions: for Emax at 1000 µM: read-out: PI hydrolysis maximal response relative to CCh
Experimental: as §1

[5] = tested on: TREM2 (sTREM2, tTREM2) in primary microglia; assay: Soluble and total TREM2 levels (ELISA) in primary microglia cultures; format: cell-based, mouse; conditions: for sTREM2 levels in medium: normalized to PMA 1 μM
Experimental: Primary microglia were isolated from C57BL6 pups (P4-6). Mouse brains were prepared by removing the cerebellum and the meninges. Brain tissue was dissected and single cell suspension was sorted via CD11b Microbeads (Milteny Biotec) to obtain primary microglia. Cells were plated at 4×10^5 cell/ml in 24 well plates and cultured for 24 hours in DMEM supplemented with 10% FBS and 1% Penicillin/Streptomycin.
Mouse primary microglia were prepared from mice postnatal day 4-6 according to standard protocols (Neuronal Tissue Dissociation Kit (P), 130-092-628 and CD11b Microbeads, 130-093-634; Miltenyi Biotec 5 GmbH, Germany) and seeded in 24-well plates at a density of 4×10^5 cells/well. After one day, cell medium was removed and cells were washed once with PBS. Subsequently, cell were treated with compound NSC001 (0-2000 μM) in FBS-free DMEM for 1 or 24 hours. Termination of the assay was carried out by collecting the media and concomitant concentration via centrifugal filter units (Amicon, Z648027-24EA, Sigma 10 Aldrich, Ireland). Cell lysis was performed by adding RIPA lysis buffer (RIPA buffer, R0278, Sigma-Aldrich Co LLC, USA) followed by agitating the cells at 4° C. for 30 min. Primary microglia cell lysates and concentrated cell medium were analyzed for soluble TREM2 (sTREM2; FIG. 3A,B) and total TREM2 (tTREM2; FIG. 3C,D) levels by ELISA (CSBEL024405MO, Cusabio Life Science, China).

AD patients = conditions: cited from earlier work
[6] = dry storage conditions; cited from earlier work
[7] = 24 hours treatment, listed as AF267B
[8] = 24 hours treatment, hydrochloride

Row | SMILES | cell viability in regards to medium control [1] | EC50 (human M1 mAChR [3]) | calcium mobilization response relative to CCh (human M1 mAChR [3]) | Aβ levels (M1 receptor) | Aβ-induced neurotoxicity (M1 receptor) | tau hyperphosphorylation (M1 receptor) | αAPPs (M1 receptor) | persistence of the cell viability effect [1] | Emax at 1000 µM (human M1 mAChR [4]) | other results
1 | CCO [Ethanol] | reduced cell viability; also recorded: rapidly decreases cell viability |  |  |  |  |  |  |  |  | 
2 | CC[C@@H]1SC2(CCN(C)CC2)NC1=O [NSC001, (S)-2-ethyl-8-methyl-1-thia-4,8-diaza-spiro[4.5]decan-3-one] | increased; also recorded: increase in viability | 1840 ± 390 nM | 113% | decrease | block | decrease | increase | persisted | 63 ± 1% | PI hydrolysis / M1 mAChR activation [2]: efficacious; also recorded: efficiently induces PI hydrolysis; spatial memory (3×Tg-AD mice): improve spatial memory; Aβ and tau pathologies (3×Tg-AD mice; hippocampus and cortex): reduced; EC50 (human M1 mAChR [4]; CHOM1 cells): 19000 nM; cellular tTREM2 levels ([5]; 1 hour treatment): remained constant; also recorded: no effect; sTREM2 levels in medium ([5]; 1 hour treatment): no alteration detected; also recorded: no effect; concentration able to increase sTREM2 levels comparable to PMA ([5]; 24 h, PMA 1 μM): 1 µM; further increase in sTREM2 exceeding the levels upon PMA treatment (1 μM) ([5]; 24 h, higher concentrations 100-2000 μM): not observed; cellular tTREM2 levels ([5]; 24 hours treatment): remain constant; sTREM2 levels in medium ([5]; 24 hours treatment): significant increase; sTREM2 levels in medium [5, 7]: significantly increases; cellular tTREM2 levels [5, 7]: unaltered; cellular tTREM2 levels ([5]; 24 hours treatment, listed as NSC0001): not affected; concentration at which the activity of features (i) to (iii) is displayed ([5]; sTREM2 secretion, calcium mobilization and/or PI hydrolysis): 1 to 5 µM
3 | CCCCCCCCCCCCCC(=O)O[C@@H]1[C@@H](C)[C@@]2(O)[C@@H](C=C(CO)C[C@]3(O)C(=O)C(C)=C[C@@H]23)[C@@H]2C(C)(C)[C@]12OC(C)=O [PMA, Phorbol myristate acetate] | increased |  |  |  |  |  |  | reversed to baseline |  | 
4 | C[C@@H]1O[C@@]2(CS1)CN1CCC2CC1.Cl (racemic) [AF102B, cis-2-Methylspiro[1,3-oxathiolane-5,3′-quinuclidine] hydrochloride, reference compound] |  | 1680 ± 330 nM | 101% | decrease | block | decrease | elevate | persisted | 43% | levels of Aβ in the CSF (AD patients): significantly decreased; cell viability in regards to medium control ([1]; hydrochloride): increased; also recorded: increase in viability; sTREM2 levels in medium [5, 8]: capable of inducing sTREM2 levels; also recorded: significantly enhances; also recorded: significantly increases; cellular tTREM2 levels [5, 8]: not affected; also recorded: unaffected; also recorded: unaltered; concentration at which the compound is active ([5]; features (i) to (iii): sTREM2 secretion, calcium mobilization and/or PI hydrolysis): 10 to 100 µM
5 | CCC1SC2(CCN(C)CC2)NC1=O (stereo not shown) [Form II] |  |  |  |  |  |  |  |  |  | stability of the crystalline form [6]: highly stable under dry storage conditions for at least two years
